Measured values published in patent US5324648A, “Substituted isocoumarins as serine protease inhibitors and anti-inflammatory agents” (Georgia Tech Research Corporation, priority 1992, dated 1994).
Read-outs that look alike come from different tables or passages of the source.

Columns and labels:
[1] = biological target: T1, bovine thrombin (Bos taurus, UniProt P00735); assay: Inactivation rate of bovine thrombin; type: biochemical; settings: pH 7.5, 25° C, read-out: kobs/[I]
T1 construct: bovine thrombin
Protocol: (§1) Inactivation rates of serine proteases by substituted isocoumarins were measured by the incubation method. An aliquot of inhibitor (25 or 50 μl) in Me2 SO was added to a buffered enzyme solution (0.01-2.3 μM) to initiate the inactivation. Aliquots (50 μl) were withdrawn at various intervals and the residual enzymatic activity was measured. Me2 SO concentration in the reaction mixture was 8-12% (v/v). 0.1 Hepes, 0.01M CaCl2, pH 7.5 buffer was utilized for trypsin and coagulation enzymes. 0.1M Hepes, 0.5M NaCl, pH 7.5 was utilized for other serine proteases. The inhibitor concentrations are shown in all the tables. Peptide thioesters or peptide nitroanilides with appropriate sequence were used as substrates for various serine proteases. All peptide thioester hydrolysis rates were measured with assay mixtures containing 4,4'-dithiodipyridine (ε324 =19800M^-1 cm^-1; Grasetti & Murray, Arch. Biochem. Biophys. 119, pp 41-49 (1967)). Peptide 4-nitroanilide nitroanilide hydrolysis was measured at 410 nm (ε410 =8800M^-1 cm^-1; Erlanger et al., Arch. Biochem. Biophys. 95, pp 271-278 (1961)). First order inactivation rate constant (kobs) were obtained from plots of ln (vt /vo) vs time, and the correlation coefficients were greater than 0.98.
(§2) ^a Conditions were as 0.1M Hepes, 0.01M CaCl2, pH 7.5 and 8-12%
(§3) Me2 SO and 25° C. Rate constants were measured by incubation
(§4) method unless otherwise noted. An aliquot of inhibitor was added to an
(§5) enzyme solution and aliquots removed with time and assayed for remaining
(§6) enzymatic activity. Firstorder rate constants, kobs were obtained
(§7) from the plots of ln(vt /vo) versus time.
(§8) ^a Inhibition rates were measured in 0.1M Hepes, 0.01M CaCl2, pH
(§9) 7.5 buffer, 8% Me2 SO and at 25° C.

[2] = biological target: T2, bovine factor Xa (Bos taurus, UniProt P00743); assay: Inactivation rate of bovine factor Xa; type: biochemical; settings: Table I; pH 7.5, 25° C; [I] 0.4 to 310 μM; read-out: kobs/[I]
T2 construct: bovine factor Xa
T2 sequence (P00743 234-492 limits assumed): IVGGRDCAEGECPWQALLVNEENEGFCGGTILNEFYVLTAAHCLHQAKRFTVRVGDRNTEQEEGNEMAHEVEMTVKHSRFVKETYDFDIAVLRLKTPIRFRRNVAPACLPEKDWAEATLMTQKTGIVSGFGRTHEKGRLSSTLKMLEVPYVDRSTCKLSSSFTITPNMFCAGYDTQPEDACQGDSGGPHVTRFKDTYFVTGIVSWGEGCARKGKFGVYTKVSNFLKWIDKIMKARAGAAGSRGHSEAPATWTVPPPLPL
T2 sequence (P00743 41-180 partner limits assumed): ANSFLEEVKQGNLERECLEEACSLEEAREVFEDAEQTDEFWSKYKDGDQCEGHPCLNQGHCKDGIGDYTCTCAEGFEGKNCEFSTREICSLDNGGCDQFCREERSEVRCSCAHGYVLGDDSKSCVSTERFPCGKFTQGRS

[3] = biological target: T3, porcine pancreatic kallikrein (Sus scrofa, UniProt P00752); assay: Inactivation rate of porcine pancreatic kallikrein; type: biochemical; settings: Table I; pH 7.5, 25° C; [I] 0.4 to 300 μM; read-out: kobs/[I]
T3 construct: from tissue; host or cells: porcine pancreas (from the name)
T3 sequence (P00752 8-246): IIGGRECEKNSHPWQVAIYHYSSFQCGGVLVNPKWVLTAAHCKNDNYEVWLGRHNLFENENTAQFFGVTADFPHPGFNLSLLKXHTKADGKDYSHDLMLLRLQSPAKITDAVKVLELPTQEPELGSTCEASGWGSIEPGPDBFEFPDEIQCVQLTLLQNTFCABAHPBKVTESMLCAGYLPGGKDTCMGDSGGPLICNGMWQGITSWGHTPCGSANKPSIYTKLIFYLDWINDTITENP

[4] = biological target: T4, human plasma kallikrein (Homo sapiens, UniProt P03952); assay: Inactivation rate of human plasma kallikrein; type: biochemical; settings: Table I; pH 7.5, 25° C; [I] 3 to 330 μM (footnote g); read-out: kobs/[I]
T4 construct: human plasma kallikrein; from tissue; host or cells: human plasma (from the name)
T4 sequence (P03952 391-638 limits assumed): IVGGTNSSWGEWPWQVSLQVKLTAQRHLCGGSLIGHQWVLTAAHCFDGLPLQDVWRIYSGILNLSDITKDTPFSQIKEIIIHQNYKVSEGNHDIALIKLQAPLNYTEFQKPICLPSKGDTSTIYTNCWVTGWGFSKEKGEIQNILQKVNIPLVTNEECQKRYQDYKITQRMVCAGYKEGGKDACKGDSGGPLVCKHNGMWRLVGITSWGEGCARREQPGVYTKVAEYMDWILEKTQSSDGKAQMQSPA
T4 sequence (P03952 20-390 partner limits assumed): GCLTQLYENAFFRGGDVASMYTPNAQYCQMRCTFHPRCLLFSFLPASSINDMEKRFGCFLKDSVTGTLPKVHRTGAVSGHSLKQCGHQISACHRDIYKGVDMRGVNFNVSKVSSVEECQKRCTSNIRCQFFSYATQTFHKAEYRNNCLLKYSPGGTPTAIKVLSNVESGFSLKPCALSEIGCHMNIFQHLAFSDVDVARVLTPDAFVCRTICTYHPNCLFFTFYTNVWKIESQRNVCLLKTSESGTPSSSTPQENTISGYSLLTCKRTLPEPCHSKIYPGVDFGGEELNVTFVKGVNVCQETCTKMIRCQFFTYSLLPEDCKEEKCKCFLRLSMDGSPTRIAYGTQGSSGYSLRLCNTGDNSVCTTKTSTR
Protocol: as §1, §2, §3, §4, §5, §6, §7

[5] = biological target: T5, human factor XIa (Homo sapiens, UniProt P03951); assay: Inactivation rate of human factor XIa; type: biochemical; settings: pH 7.5, 25° C, read-out: kobs/[I]
T5 construct: human factor XIa
T5 sequence (P03951 388-625 limits assumed): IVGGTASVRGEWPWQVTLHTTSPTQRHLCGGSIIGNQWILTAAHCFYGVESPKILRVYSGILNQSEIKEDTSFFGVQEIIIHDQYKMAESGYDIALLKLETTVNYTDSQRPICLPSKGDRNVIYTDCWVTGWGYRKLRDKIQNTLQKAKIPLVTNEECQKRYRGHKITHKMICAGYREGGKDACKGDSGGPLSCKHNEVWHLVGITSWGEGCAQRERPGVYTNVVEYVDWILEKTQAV
T5 sequence (P03951 19-387 partner limits assumed): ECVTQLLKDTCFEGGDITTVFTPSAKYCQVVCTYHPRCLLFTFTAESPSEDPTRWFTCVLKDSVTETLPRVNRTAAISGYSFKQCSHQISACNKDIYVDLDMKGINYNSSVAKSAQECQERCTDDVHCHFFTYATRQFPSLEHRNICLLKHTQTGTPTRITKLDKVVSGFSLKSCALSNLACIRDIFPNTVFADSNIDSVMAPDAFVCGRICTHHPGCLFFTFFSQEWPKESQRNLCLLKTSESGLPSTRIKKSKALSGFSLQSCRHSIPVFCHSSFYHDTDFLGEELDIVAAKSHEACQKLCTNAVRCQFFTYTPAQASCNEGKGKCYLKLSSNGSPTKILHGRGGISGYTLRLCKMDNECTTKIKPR
Protocol: as §1, §2, §3, §4, §5, §6, §7, §8, §9

[6] = biological target: T6, human factor XIIa (Homo sapiens, UniProt P00748); assay: Inactivation rate of human factor XIIa; type: biochemical; settings: pH 7.5, 25° C, read-out: kobs/[I]
T6 construct: human factor XIIa
T6 sequence (P00748 373-615 limits assumed): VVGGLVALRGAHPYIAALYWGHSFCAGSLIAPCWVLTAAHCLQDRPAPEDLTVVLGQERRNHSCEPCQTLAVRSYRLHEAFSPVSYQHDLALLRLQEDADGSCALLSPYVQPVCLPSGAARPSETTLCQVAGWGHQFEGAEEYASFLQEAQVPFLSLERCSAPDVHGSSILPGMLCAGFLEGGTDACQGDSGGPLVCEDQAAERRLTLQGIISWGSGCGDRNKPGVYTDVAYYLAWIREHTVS
T6 sequence (P00748 20-372 partner limits assumed): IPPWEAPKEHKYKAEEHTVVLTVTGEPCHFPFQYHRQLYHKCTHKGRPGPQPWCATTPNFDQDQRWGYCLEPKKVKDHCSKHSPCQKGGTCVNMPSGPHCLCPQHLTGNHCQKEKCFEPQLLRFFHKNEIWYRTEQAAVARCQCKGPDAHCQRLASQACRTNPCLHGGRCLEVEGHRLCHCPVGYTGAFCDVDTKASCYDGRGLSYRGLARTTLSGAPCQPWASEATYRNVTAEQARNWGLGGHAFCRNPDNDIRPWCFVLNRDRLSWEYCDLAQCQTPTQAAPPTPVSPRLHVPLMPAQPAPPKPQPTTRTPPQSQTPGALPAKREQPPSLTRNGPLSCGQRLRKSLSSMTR
Protocol: as §1, §2, §3, §4, §5, §6, §7, §8, §9

[7] = biological target: T7, bovine trypsin (Bos taurus, UniProt P00760); assay: Inactivation rate of bovine trypsin; type: biochemical; settings: Table I; pH 7.5, 25° C; [I] 1 to 12 μM; read-out: kobs/[I]
T7 sequence (P00760 24-246): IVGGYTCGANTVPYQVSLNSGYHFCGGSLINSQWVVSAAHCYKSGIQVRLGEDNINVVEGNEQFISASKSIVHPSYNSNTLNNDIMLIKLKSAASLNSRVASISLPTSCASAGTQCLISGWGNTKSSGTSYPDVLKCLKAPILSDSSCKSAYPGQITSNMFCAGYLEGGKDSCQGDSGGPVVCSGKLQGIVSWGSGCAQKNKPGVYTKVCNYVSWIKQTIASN
Protocol: as §1, §2, §3, §4, §5, §6, §7, §8, §9

[8] = biological target: sheep lung lymph tryptase; assay: Inactivation rate of sheep lung lymph tryptase; type: biochemical; settings: Table III; pH 7.5, 25° C; [I] 10 to 460 μM
Protocol: Inactivation rates of serine proteases by substituted isocoumarins were measured by the incubation method. An aliquot of inhibitor (25 or 50 μl) in Me2 SO was added to a buffered enzyme solution (0.01-2.3 μM) to initiate the inactivation. Aliquots (50 μl) were withdrawn at various intervals and the residual enzymatic activity was measured. […] 0.1 Hepes, 0.01M CaCl2, pH 7.5 buffer was utilized for trypsin and coagulation enzymes. […] The inhibitor concentrations are shown in all the tables. Peptide thioesters or peptide nitroanilides with appropriate sequence were used as substrates for various serine proteases.
(§10) ^a Inactivation rates were measured at 0.1M Hepes, 0.5M NaCl, pH 7.5
(§11) buffer, 8% Me2 SO and 25° C.

[9] = biological target: T8, porcine pancreatic elastase (PPE) (Sus scrofa, UniProt P00772); assay: Inactivation of porcine pancreatic elastase (PPE); type: biochemical
T8 construct: from tissue; host or cells: porcine pancreas (from the name)
T8 sequence (P00772 27-266): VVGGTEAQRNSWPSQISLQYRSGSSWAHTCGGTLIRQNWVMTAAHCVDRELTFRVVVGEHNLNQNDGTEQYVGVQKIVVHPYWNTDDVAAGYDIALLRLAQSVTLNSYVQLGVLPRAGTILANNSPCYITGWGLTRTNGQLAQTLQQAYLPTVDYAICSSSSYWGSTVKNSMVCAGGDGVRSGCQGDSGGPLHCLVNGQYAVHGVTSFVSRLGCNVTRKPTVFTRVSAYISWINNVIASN

[10] = biological target: T9, human leukocyte elastase (HLE) (Homo sapiens, UniProt P08246); assay: Inactivation of human leukocyte elastase (HLE); type: biochemical
T9 construct: from tissue; host or cells: human leukocytes (from the name)
T9 sequence (P08246 30-267): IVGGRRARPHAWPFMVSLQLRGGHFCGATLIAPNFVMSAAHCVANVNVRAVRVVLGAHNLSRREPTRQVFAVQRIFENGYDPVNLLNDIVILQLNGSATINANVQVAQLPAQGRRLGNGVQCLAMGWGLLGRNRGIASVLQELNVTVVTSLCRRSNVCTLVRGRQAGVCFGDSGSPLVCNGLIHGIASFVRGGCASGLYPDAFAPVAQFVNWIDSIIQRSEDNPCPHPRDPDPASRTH

[11] = biological target: chymotrypsin (Bos taurus, UniProt P00766); assay: Inactivation of chymotrypsin; type: biochemical, bovine; settings: pH 7.5, 25° C, read-out: kobs/[I]
[12] = biological target: T10, cathepsin G (Homo sapiens, UniProt P08311); assay: Inactivation of cathepsin G; type: biochemical
T10 construct: from tissue; host or cells: human leukocytes
T10 sequence (P08311 21-255): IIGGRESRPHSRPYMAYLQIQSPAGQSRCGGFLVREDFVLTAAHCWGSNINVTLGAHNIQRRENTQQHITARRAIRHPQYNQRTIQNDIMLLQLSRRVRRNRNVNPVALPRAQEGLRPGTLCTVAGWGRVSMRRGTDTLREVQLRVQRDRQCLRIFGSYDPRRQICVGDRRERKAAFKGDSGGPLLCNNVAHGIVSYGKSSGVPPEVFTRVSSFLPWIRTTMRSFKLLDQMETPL
Protocol: Inactivation rates of serine proteases by substituted isocoumarins were measured by the incubation method. An aliquot of inhibitor (25 or 50 μl) in Me2 SO was added to a buffered enzyme solution (0.01-2.3 μM) to initiate the inactivation. Aliquots (50 μl) were withdrawn at various intervals and the residual enzymatic activity was measured. Me2 SO concentration in the reaction mixture was 8-12% (v/v). 0.1 Hepes, 0.01M CaCl2, pH 7.5 buffer was utilized for trypsin and coagulation enzymes. 0.1M Hepes, 0.5M NaCl, pH 7.5 was utilized for other serine proteases. […] Peptide thioesters or peptide nitroanilides with appropriate sequence were used as substrates for various serine proteases. All peptide thioester hydrolysis rates were measured with assay mixtures containing 4,4'-dithiodipyridine (ε324 =19800M^-1 cm^-1 ; Grasetti & Murray, Arch. Biochem. Biophys. 119, pp 41-49 (1967)). Peptide 4-nitroanilide nitroanilide hydrolysis was measured at 410 nm (ε410 =8800M^-1 cm^-1 ; Erlanger et al., Arch. Biochem. Biophys. 95, pp 271-278 (1961)). First order inactivation rate constant (kobs) were obtained from plots of ln (vt /vo) vs time, and the correlation coefficients were greater than 0.98.
^a Inactivation rates were measured at 0.1M Hepes, 0.5 NaCl, pH 7.5,
8-12% Me2 SO and 25° C. by incubation method.
and assayed for remaining activity.
^a Inhibition rates were measured in 0.1M Hepes, 0.05M NaCl, pH 7.5
buffer, 8-9% Me2 SO and at 25° C.
Me2 SO, pH 7,5 and at 25° C.
^a Inhibition was measured in 0.1M Hepes, 0.5M NaCl, pH 7.5 buffer,
5-10% Me2 SO and at 25° C. Suc--Val--Pro--Phe--NA (0.48 mM)
was used as the substrate for chymotrypsin and cat G.

[13] = Spontaneous hydrolysis in Hepes buffer; type: physicochemical; settings: hepes buffer; 0.1 Hepes, 0.5M NaCl, pH 7.5, 9% Me2SO, 25° C; read-out: t1/2 for spontaneous hydrolysis
Protocol: ^a Conditions were 0.1 Hepes, 0.5M NaCl, pH 7.5 and 9% Me2 SO at
25° C. Spontaneous hydrolysis rates were measured
spectrophotometrically by monitoring the decrease in absorbance due to th
isocoumarin ring system (wavelength 335-380 nm) using the firstorder rate

[14] = biological target: T11, human factor Xa (Homo sapiens, UniProt P00742); assay: Inactivation rate of human factor Xa; type: biochemical; settings: Table VIII; pH 7.5, 25° C; [I] 3.6-44 μM; read-out: kobs/[I]
T11 construct: human factor Xa
T11 sequence (P00742 235-488 limits assumed): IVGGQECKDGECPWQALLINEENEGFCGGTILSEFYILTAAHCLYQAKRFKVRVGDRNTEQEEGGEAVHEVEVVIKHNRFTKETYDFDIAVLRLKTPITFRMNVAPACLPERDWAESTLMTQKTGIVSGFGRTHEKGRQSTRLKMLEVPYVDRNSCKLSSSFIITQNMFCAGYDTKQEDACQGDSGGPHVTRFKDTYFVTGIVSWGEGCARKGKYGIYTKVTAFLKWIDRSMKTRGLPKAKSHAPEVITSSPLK
T11 sequence (P00742 41-179 partner limits assumed): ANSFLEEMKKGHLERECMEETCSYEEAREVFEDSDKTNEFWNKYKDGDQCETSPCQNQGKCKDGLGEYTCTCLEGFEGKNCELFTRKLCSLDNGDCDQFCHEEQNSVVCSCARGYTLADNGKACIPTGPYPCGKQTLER
Protocol: as §1, §2, §3, §4, §5, §6, §7, §8, §9

[15] = biological target: T12, human thrombin (Homo sapiens, UniProt P00734); assay: Inactivation rate of human thrombin; type: biochemical; settings: Table VIII; pH 7.5, 25° C; [I] 1.2-54 μM; read-out: kobs/[I]
T12 construct: human thrombin
Protocol: as §1, §8, §9

[16] = biological target: human lung tryptase; assay: Inactivation rate of human lung tryptase; type: biochemical; settings: Table IX; pH 7.5, 25° C; [I] 0.42-0.47 μM
Protocol: as §1, §10, §11, §8
(§12) 7.5 buffer for human plasmin; 25 mM Phosphate, 0.5M NaCl, 1 mM EDTA, pH
(§13) 7.5 buffer for rat skin tryptase and 0.1M Hepes, 0.5M NaCl, pH 7.5 for
(§14) human lung tryptase, human skin tryptase and rt-PA. All enzymes were
(§15) assayed with ZArg-SBzl (0.07 mM) in the presence of 4,4dithiodipyridine
(§16) (0.33 mM). Reaction mixtures contained 8% Me2 SO and assays were […]

[17] = biological target: T13, rat skin tryptase (Rattus norvegicus, UniProt P27435); assay: Inactivation rate of rat skin tryptase; type: biochemical; settings: pH 7.5, Table IX; pH 7.5, 25° C; [I] 0.42-0.51 μM; read-out: kobs/[I]
T13 construct: from tissue; host or cells: rat skin
T13 sequence (P27435 29-273): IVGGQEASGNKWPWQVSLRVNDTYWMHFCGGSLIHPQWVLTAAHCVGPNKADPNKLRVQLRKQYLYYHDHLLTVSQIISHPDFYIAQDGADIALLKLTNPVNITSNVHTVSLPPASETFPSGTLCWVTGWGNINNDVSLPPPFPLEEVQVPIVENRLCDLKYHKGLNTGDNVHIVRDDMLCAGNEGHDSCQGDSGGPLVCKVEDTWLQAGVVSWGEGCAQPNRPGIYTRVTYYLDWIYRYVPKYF
Protocol: as §1
^b Inactivation rates were measured at 25 mM phosphate, 0.5M NaCl, 1
mM EDTA, pH 7.5 buffer, 9% Me2 SO and 25° C.
as §8, §12, §13, §14, §15, §16

[18] = biological target: recombinant human tissue plasminogen activator (Homo sapiens, UniProt P00750); assay: Inactivation rate of recombinant human tissue plasminogen activator; type: biochemical; settings: pH 7.5, Table IX; pH 7.5, 25° C; [I] 3.5-5.0 μM; read-out: kobs/[I]
Sequence of recombinant human tissue plasminogen activator (P00750 36-562): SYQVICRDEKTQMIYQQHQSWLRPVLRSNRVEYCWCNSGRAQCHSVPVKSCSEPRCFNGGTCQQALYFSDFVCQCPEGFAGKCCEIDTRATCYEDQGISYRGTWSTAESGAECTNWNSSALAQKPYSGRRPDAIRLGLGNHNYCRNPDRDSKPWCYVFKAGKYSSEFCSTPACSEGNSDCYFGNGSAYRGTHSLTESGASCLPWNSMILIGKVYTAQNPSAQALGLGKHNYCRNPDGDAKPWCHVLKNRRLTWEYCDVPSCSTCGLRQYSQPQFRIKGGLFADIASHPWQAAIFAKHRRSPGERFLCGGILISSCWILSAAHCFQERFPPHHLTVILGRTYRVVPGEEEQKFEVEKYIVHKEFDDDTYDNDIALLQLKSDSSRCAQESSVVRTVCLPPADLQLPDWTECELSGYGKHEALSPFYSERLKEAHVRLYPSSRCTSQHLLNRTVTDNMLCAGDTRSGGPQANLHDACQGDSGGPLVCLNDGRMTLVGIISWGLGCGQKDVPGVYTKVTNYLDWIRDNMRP
Protocol: as §1
^a Inactivation constants were measured at 0.1M Hepes, 0.5M NaCl (or
as §8, §12, §13, §14, §15, §16

[19] = system: pig plasma; assay: Prothrombin time (PT), pig plasma; settings: [I] 32 μM
[20] = system: pig plasma; assay: Activated partial thromboplastin time (APTT), pig plasma; settings: [I] 32 μM

In the case of `CCOc1cc2ccc(NC(=N)N)cc2c(=O)o1` [7-guanidino-3-ethoxyisocoumarin], the kinact/KI ([1]; Table I, [I] 0.3 to 400 μM) is reported as 3700 M⁻¹ s⁻¹, the kinact/KI [2] is reported as 2700 M⁻¹ s⁻¹ and the kinact/KI [3] is reported as 16000 M⁻¹ s⁻¹. It also gave a kinact/KI [4] of 44000 M⁻¹ s⁻¹, a kinact/KI ([5]; Table I, [I] 3 to 330 μM) of 3100 M⁻¹ s⁻¹ and a kinact/KI ([6]; Table I, [I] 3 to 330 μM) of 1300 M⁻¹ s⁻¹. The kinact/KI [7] was 20000 M⁻¹ s⁻¹, the “kobs/[I]” value [8] was 150 M⁻¹ s⁻¹ and the kinact/KI ([9]; Table IV, pH 7.5, 25° C, [I] 0.01 to 0.51 mM, read-out: kobs/[I]) was 86 M⁻¹ s⁻¹. For the same molecule, the kinact/KI ([10]; Table IV, pH 7.5, 25° C, [I] 0.001 to 0.18 mM, read-out: kobs/[I]) was 1900 M⁻¹ s⁻¹, the kinact/KI ([11]; Table IV, [I] 0.004 to 0.33 mM) was 990 M⁻¹ s⁻¹ and the inhibition at 47 µM ([12]; Table IV, not time dependent, at 47 μM) was 87%. The half-life [13] was 2.27 h.
`N=C(N)SCCOc1oc(=O)c2cc(NC(=O)NCc3ccccc3)ccc2c1Cl` [PhCH2 NHCONH-CiTEtOIC, 7-(benzylcarbamoylamino)-4-chloro-3-(2-isothiureidoethoxy)isocoumarin] gave a kinact/KI ([1]; Table VIII, [I] 1.2-54 μM) of 16800 M⁻¹ s⁻¹, a kinact/KI [14] of 2340 M⁻¹ s⁻¹ and a kinact/KI ([5]; Table VIII, [I] 0.7-0.8 μM) of 105000 M⁻¹ s⁻¹. The kinact/KI ([6]; Table VIII, [I] 3.6-4.9 μM) was 45000 M⁻¹ s⁻¹, the kinact/KI [15] was 11700 M⁻¹ s⁻¹ and the “kobs/[I]” value [16] was 280,000 M^-1 s^-1. The kinact/KI [17] was 200000 M⁻¹ s⁻¹, the kinact/KI [18] was 19000 M⁻¹ s⁻¹ and the PT [19] was 31.1 s. The APTT [20] was > 120 s.
With `C[C@@H](NC(=O)Nc1ccc2c(Cl)c(OCCSC(=N)N)oc(=O)c2c1)c1ccccc1` [R-C6 H5 (CH3)CHNHCONH-CiTEtOIC, 7-((R)-α-methylbenzylcarbamoylamino)-4-chloro-3-(2-isothiureidoethoxy)isocoumarin] the kinact/KI ([1]; Table VIII, [I] 1.2-54 μM) was 29500 M⁻¹ s⁻¹, the kinact/KI [15] was 12000 M⁻¹ s⁻¹ and the percentage of inhibition ([9]; Table X, after 20 min incubation) was 9%. It also gave a percentage of inhibition ([10]; Table X, after 5 min incubation) of 40%, a kinact/KI ([11]; Table X, [I] 0.9-43 μM) of 360 M⁻¹ s⁻¹ and a kinact/KI ([12]; Table X, pH 7.5, 25° C, [I] 33-46 μM, read-out: kobs/[I]) of 145 M⁻¹ s⁻¹. For the same molecule, the PT [19] was 26.2 s and the APTT [20] was > 120 s.
